Article PMC2063203, “The renal effects of the water-soluble, non-folylpolyglutamate synthetase-dependent thymidylate synthase inhibitor ZD9331 in mice” (British Journal of Cancer, 1998)
Values after ≈ are worked out from the molar mass of the structure shown. Values joined by “and” are separate entries in the source; they are usually repeats but may differ in a detail not shown here. Equal entries are not always repeated. Where two headings read alike, the source gives them in different places.

How the values were obtained:
Aqueous solubility = assay type: physicochemical
DBA-2 mice = assay: Kidney histology (H & E) and immunohistochemical staining for ZD9331; assay type: in vivo
[1] = Plasma pharmacokinetics of ZD9331 (HPLC, non-compartmental); assay type: in vivo, mice; conditions: for AUC(0-t): read-out: AUC0-8h; for concentration at 4 h: read-out: plasma drug concentration at 4 h; for Cmax / Tmax: mouse
Procedure: (§1) British Journal of Cancer (1998) 78(11), 1457-1463 ? […] In contrast to Tomudex (ZD1694), ZD9331 may therefore be active against tumours with low FPGS activity. […] In view of the history of renal toxicity with some earlier TS inhibitors and the possible therapeutic use of bolus ZD9331, we have examined the effects of bolus ZD9331 dose and route of administration on plasma and kidney pharmacokinetics and renal function in mice. Renal function was assessed by measuring [14C]inulin clearance, and drug concentrations were assayed by reverse-phase high-performance liquid chromatography (HPLC). […] Kidney drug concentrations were slightly elevated in iv.- versus i.p.-treated animals at the low dose (50 mg kg-'), with a correspondingly larger area under the curve. However, at the highest dose (200 mg kg-'), peak kidney drug concentrations were 20-fold higher following i.v. administration than after i.p., with marked kidney retention, resulting in a 50-fold greater kidney drug exposure for the i.v. versus the i.p. route. […] These adverse effects can be readily overcome by i.p. administration, indicating the likely need for short infusions in clinical settings. […] Early studies established that nephrotoxicity may be a result of poor aqueous solubility of 2-amino compounds such as CB3717, and it was shown that 2-desamino CB3717 was more water soluble and less nephrotoxic (Jones et al, 1989; 1996). […] These polyglutamate forms also exibit intra- cellular retention, which may contribute to toxicity as well as anti- tumour activity. […] Such compounds might be expected to show activity in a different spectrum of tumours from ZD1694 and to have a more manageable toxicity profile because of the lack of retained cyto- toxic metabolites. […] MATERIALS AND METHODS Drug administration and animals The compound ZD933 1 (Figure 1) was provided as a white crystalline salt. ['4C]inulin was provided as a carboxylic acid (Amersham, UK, 250 µCi in 5 ml, specific activity 6.6 mCi mmol-') and diluted to an activity of 5 µCi ml-' in phosphate-buffered saline (PBS). ZD9331 was dissolved in 0.05 M sodium bicarbonate, 1457 1458 Ml Walton et al ~~ N Ny~~~14COOHH 0 H IN H N CH ~~~~H , 4 H3C N3 H Figure 1 The chemical structure of ZD9331 adjusted to pH 9.0 and administered either i.v. via the tail vein or i.p. at 0.01 ml g-' mouse body weight. [14C]inulin was administered at 0.05 gCi g-' (i.e. 0.01 ml g-') i.v. via the tail vein. Adult female DBA-2 mice were obtained from OLAC (Bicester, UK) and used at 8-12 weeks of age at a body weight of 15-25 g. Mice were housed in cages containing untreated sawdust and allowed access to food and water ad libitum. Sample preparation Plasma and tissue samples were prepared using standard tech- niques (Walton et al, 1996). Briefly, whole blood was obtained by cardiac puncture into heparinized syringes from halothane- anaesthetized mice. Plasma was prepared by centrifugation at 12 000 r.p.m. x 2 min in a bench-top microcentrifuge. Kidney and liver tissues were rapidly removed, washed and snap frozen on dry ice. Frozen plasma and tissues were stored at -20?C for up to 4 weeks prior to analysis. Individual samples were thawed on ice and handled rapidly. ZD9331 was extracted from whole plasma or tissue homogenates (33% w/v in 0.1 M Tris, pH 10.0) by the addition of an equal volume of acetonitrile, mixing and centrifugation and the super- natant removed for injection into the HPLC system. Samples were diluted with Tris buffer (0.1 M, pH 10.0) on to the linear part of the calibration curve prior to HPLC analysis. Extraction efficiencies were >95%. HPLC analysis Concentrations of ZD9331 were measured in biological samples using reversed phase HPLC on equipment supplied by Kontron (Watford, UK). Separations were carried out using stainless-steel columns heated at 45?C and packed with C18 Supelcosil ODS (10 cm x 4.6 mm, 5 µm bead size, Sigma, Dorset) and protected with NewGuard C18 columns (Anachem, Luton, UK). […]

[2] = Kidney drug distribution and kidney-plasma ratios (HPLC); assay type: in vivo, mice; conditions: for Cmax / Tmax / AUC(0-t): mouse, DBA-2 mice; for AUC(0-t): read-out: AUC0-8h
Procedure: as §1

[3] = Peak plasma concentration in phase I, 30 min infusion; assay type: in vivo; conditions: after 30 min infusion
[4] = female, ip, plasma, DBA-2 mice, 50 mg kg-1 i.p.
[5] = female, ip, plasma, DBA-2 mice, 200 mg kg-1 i.p.
[6] = female, iv, plasma, DBA-2 mice, 50 mg kg-1 i.v. bolus
[7] = female, iv, plasma, DBA-2 mice, 100 mg kg-1 i.v. bolus
[8] = female, iv, plasma, DBA-2 mice, 200 mg kg-1 i.v. bolus
[9] = female, ip, kidney, 50 mg kg-1 i.p.
[10] = female, ip, kidney, 200 mg kg-1 i.p.
[11] = female, iv, kidney, 50 mg kg-1 i.v.
[12] = female, iv, kidney, 200 mg kg-1 i.v.

## C#CCN(Cc1cc2c(=O)[nH]c(C)nc2cc1C)c1ccc(C(=O)N[C@@H](CCc2nnn[nH]2)C(=O)O)c(F)c1 [ZD9331, (2S)-2-{O-fluoro-p-(N-(2,7-dimethyl-4-oxo-3,4-dihydroquinazolin-6-ylmethyl)-N-(prop-2-ynyl)amino}benzamido}-4-(tetrazol-5-yl)butyric acid]
Aqueous solubility; pH 5.3, aqueous buffer
  solubility: 0.1 mM (≈ 53.3 µg/mL)
Aqueous solubility; pH 7.4, aqueous buffer
  solubility: 8 mM (≈ 4260 µg/mL)
DBA-2 mice; 200 mg kg-1 i.v., 4 h after
  renal histology: evidence of tubular dilatation (Figure SB), with the presence of fine granular casts in the tubules
DBA-2 mice; 200 mg kg-1 i.v., data not shown
  drug distribution in kidney tissue (histology with immunohistochemical staining): uniform drug distribution in tissue with no evidence of drug precipitation
DBA-2 mice; lower drug doses
  renal histology: some tubular dilatation
[1]; 50 mg kg-1
  peak plasma concentration i.p. as % of i.v.: 11%
[1]; 200 mg kg-1
  peak plasma concentration i.p. as % of i.v.: 25%
[1]; female, DBA-2, mouse, plasma, ip, 50 mg/kg, plasma, DBA-2 mice, 50 mg kg-1 i.p.
  AUC(0-t): 90.1 µM·h
[1]; female, DBA-2, mouse, plasma, ip, 50 mg/kg, plasma, DBA-2 mice, 50 mg kg-1 i.p., read-out: t1/2
  half-life: 93.4 min
[1]; female, DBA-2, mouse, plasma, ip, 200 mg/kg, plasma, DBA-2 mice, 200 mg kg-1 i.p.
  AUC(0-t): 315 µM·h
[1]; female, DBA-2, mouse, plasma, ip, 200 mg/kg, plasma, DBA-2 mice, 200 mg kg-1 i.p., read-out: t1/2
  half-life: 99 min
[1]; female, DBA-2, mouse, plasma, ip, 50 mg kg-1, read-out: i.p. bioavailability
  bioavailability: 80%
[1]; female, DBA-2, mouse, plasma, ip, 50 mg kg-1 i.p.
  concentration at 4 h: 1000 nM
[1]; female, DBA-2, mouse, plasma, ip, 200 mg kg-1 i.p.
  concentration at 4 h: 1860 nM
[1]; female, DBA-2, mouse, plasma, iv, 50 mg/kg, plasma, DBA-2 mice, 50 mg kg-1 i.v. bolus
  AUC(0-t): 75.3 µM·h
[1]; female, DBA-2, mouse, plasma, iv, 50 mg/kg, plasma, DBA-2 mice, 50 mg kg-1 i.v. bolus, read-out: t1/2 (apparent terminal elimination)
  half-life: 57 min
[1]; female, DBA-2, mouse, plasma, iv, 100 mg/kg, plasma, DBA-2 mice, 100 mg kg-1 i.v. bolus
  AUC(0-t): 109 µM·h
[1]; female, DBA-2, mouse, plasma, iv, 100 mg/kg, plasma, DBA-2 mice, 100 mg kg-1 i.v. bolus, read-out: t1/2
  half-life: 91.7 min
[1]; female, DBA-2, mouse, plasma, iv, 200 mg/kg, plasma, DBA-2 mice, 200 mg kg-1 i.v. bolus
  AUC(0-t): 332 µM·h
[1]; female, DBA-2, mouse, plasma, iv, 200 mg/kg, plasma, DBA-2 mice, 200 mg kg-1 i.v. bolus, read-out: t1/2
  half-life: 64.5 min
[1]; female, DBA-2, mouse, plasma, iv, 50 mg kg-1 i.v.
  concentration at 4 h: 1100 nM
[1]; female, DBA-2, mouse, plasma, iv, 100 mg kg-1 i.v., read-out: plasma drug concentration at 2 min
  concentration at 2 min: 898 µM
[1]; female, DBA-2, mouse, plasma, iv, 100 mg kg-1 i.v., read-out: plasma drug concentration at 5 min
  concentration at 5 min: 771 µM
[1]; female, DBA-2, mouse, plasma, iv, 200 mg kg-1 i.v.
  concentration at 4 h: 1300 nM
[1]; [4]
  Cmax: 74100 ng/mL and 139 µM
  Tmax: 10 min
[1]; [5]
  Cmax: 483000 ng/mL and 906 µM
  Tmax: 10 min
[1]; [6]
  Cmax: 696000 ng/mL and 1.31 mM
  Tmax: 1 min
[1]; [7]
  Cmax: 708000 ng/mL and 1.32 mM
  Tmax: 1 min
[1]; [8]
  Cmax: 1.9e+06 ng/mL and 3.63 mM
  Tmax: 1 min
[1]; i.p., range 0-200 mg kg-1
  relation of plasma drug exposure (AUC) to dose: linearly related to dose
[1]; i.v., up to 200 mg kg-1
  relation of plasma drug exposure (AUC) to dose: marked deviation from linearity at the highest dose
[1]; plasma, 50 mg kg-1 i.v.
  peak plasma concentration: 1.3 mM
[1]; plasma, 200 mg kg-1
  i.p. AUC0-8h as % of i.v.: 63%
[1]; plasma, DBA-2 mice, 50 mg kg-1 i.v. bolus
  t1/2 (apparent terminal elimination): 57.7 min
[2]; 50 mg kg-1
  peak kidney drug level i.p., % lower than i.v.: 80%
[2]; 200 mg kg-1
  kidney AUC0-8h i.p. as % of i.v. route: 1.8%
  kidney drug exposure i.v. versus i.p.: 50 fold
  peak kidney drug concentration i.v. versus i.p.: 20 fold
  peak kidney drug level i.p. as % of i.v. value: 5%
[2]; 200 mg kg-1 i.p.
  kidney-plasma ratio at 8 h: 2 000%
  kidney-plasma ratio relative to the lower dose of 50 mg kg-1: 2-3 times
  kidney-plasma ratio, initial: 20%
[2]; 200 mg kg-1 i.v.
  kidney AUC0-8h: 9.66 mM·h
  kidney-plasma ratio after 8 h: 100 000%
  kidney-plasma ratio, initial (measured at 5 min): > 100%
  peak kidney drug level: 3.62 mM
[2]; 200 mg kg-1 i.v. compared with 50 mg kg-1 i.v.
  peak kidney drug level versus lower dose: ~12 fold
[2]; female, DBA-2, mouse, kidney, ip, 50 mg kg-1, 50 mg kg-1 i.p., Discussion, read-out: kidney-plasma ratio, steady-state equilibrium at 4 h
  Kp at 4 h: 2 to 4
[2]; female, DBA-2, mouse, kidney, ip, 50 mg kg-1, 50 mg kg-1 i.p., read-out: kidney-plasma ratio after 1 h
  Kp at 1 h: 1
[2]; female, DBA-2, mouse, kidney, ip, 50 mg kg-1, 50 mg kg-1 i.p., read-out: kidney-plasma ratio, steady-state
  Kp: 1 to 3
[2]; female, DBA-2, mouse, kidney, iv, 50 mg kg-1, 50 mg kg-1 i.v., read-out: kidney-plasma ratio at 30 min
  Kp at 30 min: 10
[2]; female, DBA-2, mouse, kidney, iv, 50 mg kg-1, 50 mg kg-1 i.v., read-out: kidney-plasma ratio, equilibrium at 2 h
  Kp at 2 h: 2 to 3
[2]; female, DBA-2, mouse, kidney, iv, 50 mg kg-1, 50 mg kg-1 i.v., read-out: kidney-plasma ratio, initial
  Kp: 0.35
[2]; female, DBA-2, mouse, kidney, iv, 200 mg kg-1, 200 mg kg-1 i.v., read-out: kidney concentration relative to plasma, plateau
  Kp: 400 to 600
[2]; female, DBA-2, mouse, kidney, iv, 200 mg kg-1, 200 mg kg-1 i.v., read-out: kidney-plasma ratio, initial (measured at 5 min)
  Kp at 5 min: 1
[2]; female, DBA-2, mouse, kidney/plasma, ip, 200 mg kg-1, 200 mg kg-1 i.p., read-out: kidney-plasma ratio, increased steadily to
  Kp: 10 to 20
[2]; female, DBA-2, mouse, kidney/plasma, ip, 200 mg kg-1, 200 mg kg-1 i.p., read-out: kidney-plasma ratio, initial
  Kp: 0.23
[2]; [9]
  Cmax: 31500 ng/g and 59.1 µM
  Tmax: 10 min
  AUC(0-t): 47.5 µM·h
[2]; [10]
  Cmax: 96400 ng/g and 181 µM
  Tmax: 30 min
  AUC(0-t): 179 µM·h
[2]; [11]
  Cmax: 163000 ng/g and 305 µM
  Tmax: 10 min
  AUC(0-t): 240 µM·h
[2]; [12]
  Cmax: 1.9e+06 ng/g and 3.62 mM
  Tmax: 30 min
  AUC(0-t): 9660 µM·h
[3]
  peak plasma drug concentration in man as % of that after 200 mg kg-1 i.v. in mouse: < 1%
